Test results from US20240116850A1, “COMPOSITIONS AND METHODS RELATED TO BICYCLO[2.2.1] HEPTANAMINE-CONTAINING COMPOUNDS” (The Broad Institute, Inc., priority 2020, published 2024).

Tests used:
[1] = system: MUC1-wt; assay: High-content imaging assay of MUC1-wt total cytoplasm intensity in P cells; assay type: cell-based; details: for EC50: MUC1-wt total cytoplasm intensity, P cells, 48 hr incubation; for WT ECMax: MUC1-wt, DMSO = 0, JQ1 (250 nM) = −100% activity
Procedure: (§1) P cells were seeded 24 hr prior to compound treatment at a density of 12,000 cells/well in 384 well Cell Carrier Ultra plates (6057308, Perkin Elmer), pre-coated with 0.25 mg/mL Synthemax 11 SC Substrate (3535, Corning). Compounds were used at 5 doses (35, 3.5, 0.35, 0.035 and 0.0035 μM) for the primary screen and 10 doses (16, 5.6, 1.8, 0.6, 0.21, 0.07, 0.02, 0.008, 0.002 and 0.0008 μM) for the following screens. The compounds, in two replicates, were transferred from compound source plates to the cell plates using the HighRes Pin Tool. DMSO was used as a negative control and JQ1 (250 nM) (a bromodomain inhibitor) was chosen as a positive control, based on earlier studies showing its potent effect on reducing total MUC1 mRNA levels (data not shown). After 48 hr incubation, cells were fixed for 20 min in 4% PFA (Electron Microscopy Sciences) in PBS, washed twice, then permeabilized (10 min) with 0.5% Triton-X100 (X100-100MVL, Sigma-Aldrich) in PBS and washed once more. Cells were blocked for 10 min at RT with Blocking solution (100 mM Tris HCL pH8; l150 mM NaCL; 5 g/L Blocking Reagent [11096176001, Roche]), then incubated 90 min at RT with one of the following primary antibodies in Roche Blocking solution: 1:500, monoclonal Fab-A-V5H anti-MUC1-fs, AbD22655.2, Bio-Rad; 1:2000, monoclonal mouse anti-MUC1 (214D4), 05-652-KC, Millipore; 1:1000, monoclonal, Rabbit anti-GM130 (D6B1) XP, 12480, Cell signaling technology. The primary antibody cocktail was incubated at RT for 1.5 hr, followed by four PBS wash cycles. The secondary antibody cocktail contained four components that were all prepared at a 1:1000 dilution in the Roche blocking solution and consisted of Alexa Fluor® 488-conjugated AffiniPure F(ab′)2 Fragment Goat anti-Human IgG, 109-546-097, Jackson Immunoresearch; Alexa Fluor® 647-conjugated Goat anti-Rabbit IgG, A-21246, Thermo Fisher Scientific®; Alexa Fluor® 546 Goat anti-mouse IgG, A-21123, Thermo Fisher Scientific® and Hoechst 33342 stain (62249, Thermo Fisher Scientific®). The secondary antibody cocktail was incubated at RT for 45 min, followed by four PBS wash cycles. Finally, plates were sealed with a Plate Loc plate and stored in Liconic incubator at 10° C. until imaging. Following image analysis, three parameters were selected, i) MUC1-fs and ii) MUC1-wt total cytoplasm intensity (averaged per cell) and iii) cell number as was detected by Hoechst 33342 stained nuclei. The levels of MUC1-fs and MUC1-wt found following DMSO and JQ1 were defined as 0 and −100% activity, respectively. The values obtained for all compounds were normalized accordingly. Cell number was normalized to DMSO control.
(§2) The pure enantiomers were profiled in the high-content imaging assay for the ability to reduce the amount of FS MUC1 protein in the cytoplasm (Table 48) following the procedure of Example 4.

[2] = system: MUC1-fs; assay: High-content imaging assay of MUC1-fs total cytoplasm intensity in P cells; assay type: cell-based; details: for EC50: MUC1-fs total cytoplasm intensity, P cells, 48 hr incubation; for ECMax: MUC1-fs, DMSO = 0, JQ1 (250 nM) = −100% activity
Procedure: as §1, §2

[3] = high-content imaging assay, procedure of Example 4

With CC(C)C1C2CCC(C2)C1N.Cl (racemic) [BRD4780, rac-3-exo-isopropylbicyclo[2.2.1]heptan-2-endo-amine hydrochloride, reference compound] the “reduction in wild-type MUC1 levels” value [1, 3] was “no observed reduction”.
Compound CC(C)[C@H]1[C@H]2CC[C@H](C2)[C@H]1N.Cl (racemic) [Compound 103, rac-3-endo-isopropylbicyclo[2.2.1]heptan-2-endo-amine hydrochloride] has an EC50 [2] of 2.14 µM, an ECMax [2] of −83.25% and an EC50 [1] of over 32 µM. For the same compound, the “WT ECMax” value [1] was −13.31%.
CCC[C@@H]1[C@H]2CC[C@H](C2)[C@H]1N.Cl (racemic) [Compound 107-rac] gave an EC50 [2] of over 32 µM, an ECMax [2] of 10.08% and an EC50 [1] of over 32 µM. The “WT ECMax” value [1] was 8.64%.
For CCC[C@H]1[C@H]2CC[C@H](C2)[C@@H]1N.Cl (racemic) [Compound 108-rac], the EC50 [2] was over 32 µM, the ECMax [2] was −8.01% and the EC50 [1] was over 32 µM. For the same compound, the “WT ECMax” value [1] was −4.32%.
Cl.N[C@@H]1[C@@H]2CC[C@@H](C2)[C@H]1C1CC1 (racemic) [Compound 109] gave an EC50 [2] of 0.45 µM, an ECMax [2] of −73.56% and an EC50 [1] of over 32 µM. The “WT ECMax” value [1] was −12.5%.
CC(C)C[C@@H]1[C@H]2CC[C@H](C2)[C@H]1N.Cl (racemic) [Compound 111] gave an EC50 [2] of over 32 µM, an ECMax [2] of −9.02% and an EC50 [1] of over 32 µM. For the same compound, the “WT ECMax” value [1] was 10.58%.
CC(C)C[C@H]1[C@H]2CC[C@H](C2)[C@@H]1N.Cl (racemic) [Compound 112] was tested, and the EC50 [2] was over 32 µM, the ECMax [2] was 18.48% and the EC50 [1] was over 32 µM. The “WT ECMax” value [1] was −8.84%.
With Cl.N[C@@H]1[C@@H]2CC[C@@H](C2)[C@H]1C1CCC1 (racemic) [Compound 113] the EC50 [2] was 0.478 µM, the ECMax [2] was −46.53% and the EC50 [1] was over 32 µM. For the same compound, the “WT ECMax” value [1] was 13.12%.
Cl.N[C@H]1[C@@H]2CC[C@@H](C2)[C@@H]1C1CCC1 (racemic) [Compound 114-rac] gave an EC50 [2] of 12.9 µM, an ECMax [2] of −44.74% and an EC50 [1] of over 32 µM. For the same compound, the “WT ECMax” value [1] was 18.3%.
CC(C)(C)[C@@H]1[C@H]2CC[C@H](C2)[C@H]1N.Cl (racemic) [Compound 115] showed an EC50 [2] of 0.295 µM, an ECMax [2] of −79.02% and an EC50 [1] of 12.3 µM. For the same compound, the “WT ECMax” value [1] was 71.79%.
Compound Cl.N[C@@H]1[C@@H]2CC[C@@H](C2)[C@H]1C1CCCCC1 (racemic) [Compound 118] has an EC50 [2] of over 32 µM, an ECMax [2] of −9.08% and an EC50 [1] of over 32 µM. For the same compound, the “WT ECMax” value [1] was −8.52%.
Cl.N[C@H]1[C@@H]2CC[C@@H](C2)[C@@H]1C1CCCCC1 (racemic) [Compound 119] gave an EC50 [2] of over 32 µM, an ECMax [2] of 20.39% and an EC50 [1] of over 32 µM. The “WT ECMax” value [1] was 14.48%.
Work on Cl.N[C@@H]1[C@@H]2CC[C@@H](C2)[C@H]1c1ccccc1 (racemic) [Compound 120] yielded an EC50 [2] of over 32 µM, an ECMax [2] of −27.71% and an EC50 [1] of over 32 µM. For the same compound, the “WT ECMax” value [1] was 15.88%.
Cl.N[C@@H]1[C@@H]2CC[C@@H](C2)[C@H]1c1cccs1 (racemic) [Compound 122] was tested, and the EC50 [2] was over 32 µM, the ECMax [2] was −12.17% and the EC50 [1] was over 32 µM. For the same compound, the “WT ECMax” value [1] was −10.53%.
With CC(C)[C@H]1[C@@H]2CC[C@@H](C2)[C@@H]1N.Cl (single isomer, unassigned) [BRD4780 Fr1, hydrochloride] the IC50 [2, 3] was 0.156 µM and the IC50 ([2]; second pair of columns (c3-c4)) was 9.2 µM.
In the case of CC(C)[C@H]1[C@@H]2CC[C@@H](C2)[C@@H]1N.Cl (single isomer, unassigned) [BRD4780 Fr1], the “FS MUC1 cytoplasm EMax (%)” value [2, 3] is reported as −42% and the “FS MUC1 cytoplasm EMax (%)” value ([2]; second pair of columns (c3-c4)) is reported as 113%.
With CC(C)[C@@H]1[C@H]2CC[C@H](C2)[C@H]1N.Cl (single isomer, unassigned) [BRD4780 Fr2, hydrochloride] the IC50 [2, 3] was 0.175 µM and the IC50 ([2]; second pair of columns (c3-c4)) was 12.6 µM.
With CC(C)[C@@H]1[C@H]2CC[C@H](C2)[C@H]1N.Cl (single isomer, unassigned) [BRD4780 Fr2] the “FS MUC1 cytoplasm EMax (%)” value [2, 3] was −46% and the “FS MUC1 cytoplasm EMax (%)” value ([2]; second pair of columns (c3-c4)) was 60%.
For C[C@@H]1[C@H]2CC[C@H](C2)[C@H]1N.Cl (single isomer, unassigned) [Compound 104-P1, (1R,2R,3R,4S)-3-methylbicyclo[2.2.1]heptan-2-amine hydrochloride], the EC50 [2] was 19.6 µM and the EC50 [1] was over 32 µM.
With C[C@@H]1[C@H]2CC[C@H](C2)[C@H]1N.Cl (single isomer, unassigned) [Compound 104-P1] the ECMax [2] was −47.64% and the “WT ECMax” value [1] was −13.75%.
With C[C@@H]1[C@H]2CC[C@H](C2)[C@H]1N.Cl (single isomer, unassigned) [Compound 104-P2, hydrochloride] the EC50 [2] was 4.5 µM and the EC50 [1] was over 32 µM.
With C[C@@H]1[C@H]2CC[C@H](C2)[C@H]1N.Cl (single isomer, unassigned) [Compound 104-P2] the ECMax [2] was −78.16% and the “WT ECMax” value [1] was −14.86%.
Cl.N[C@@H]1[C@@H]2CC[C@@H](C2)[C@H]1C1CC1 (single isomer, unassigned) [Compound 109-P1] was tested, and the EC50 [2] was over 32 µM, the ECMax [2] was −32.29% and the EC50 [1] was over 32 µM. The “WT ECMax” value [1] was 9.06%.
Cl.N[C@H]1[C@H]2CC[C@H](C2)[C@@H]1C1CC1 (single isomer, unassigned) [Compound 109-P2] was tested, and the EC50 [2] was 0.52 µM, the ECMax [2] was −74.31% and the EC50 [1] was over 32 µM. For the same compound, the “WT ECMax” value [1] was −14.32%.
Cl.N[C@H]1[C@@H]2CC[C@@H](C2)[C@@H]1C1CC1 (single isomer, unassigned) [Compound 110-P1, (1R,2S,3S,4S)-3-cyclopropylbicyclo[2.2.1]heptan-2-amine hydrochloride] gave an EC50 [2] of 8.49 µM and an EC50 [1] of over 32 µM.
In the case of Cl.N[C@H]1[C@@H]2CC[C@@H](C2)[C@@H]1C1CC1 (single isomer, unassigned) [Compound 110-P1], the ECMax [2] is reported as −50.96% and the “WT ECMax” value [1] is reported as −8.95%.
With Cl.N[C@@H]1[C@H]2CC[C@H](C2)[C@H]1C1CC1 (single isomer, unassigned) [Compound 110-P2, (1S,2R,3R,4R)-3-cyclopropylbicyclo[2.2.1]heptan-2-amine hydrochloride] the EC50 [2] was 3.38 µM and the EC50 [1] was over 32 µM.
Cl.N[C@@H]1[C@H]2CC[C@H](C2)[C@H]1C1CC1 (single isomer, unassigned) [Compound 110-P2] was tested, and the ECMax [2] was −47.09% and the “WT ECMax” value [1] was −12.31%.
CC(C)C[C@@H]1[C@H]2CC[C@H](C2)[C@H]1N.Cl (single isomer, unassigned) [Compound 111-P1] was tested, and the EC50 [2] was over 32 µM, the ECMax [2] was −12.73% and the EC50 [1] was over 32 µM. The “WT ECMax” value [1] was −10.33%.
In the case of CC(C)C[C@H]1[C@@H]2CC[C@@H](C2)[C@@H]1N.Cl (single isomer, unassigned) [Compound 111-P2], the EC50 [2] is reported as over 32 µM, the ECMax [2] is reported as −11.51% and the EC50 [1] is reported as over 32 µM. For the same compound, the “WT ECMax” value [1] was −9.06%.
For CC(C)C[C@H]1[C@H]2CC[C@H](C2)[C@@H]1N.Cl (single isomer, unassigned) [Compound 112-P1], the EC50 [2] was over 32 µM, the ECMax [2] was 26.46% and the EC50 [1] was under 32 µM. For the same compound, the “WT ECMax” value [1] was 9.15%.
With CC(C)C[C@@H]1[C@@H]2CC[C@@H](C2)[C@H]1N.Cl (single isomer, unassigned) [Compound 112-P2] the EC50 [2] was over 32 µM, the ECMax [2] was 13.14% and the EC50 [1] was over 32 µM. For the same compound, the “WT ECMax” value [1] was 7.52%.
Cl.N[C@@H]1[C@@H]2CC[C@@H](C2)[C@H]1C1CCC1 (single isomer, unassigned) [Compound 113-P1] showed an EC50 [2] of over 32 µM, an ECMax [2] of −13.24% and an EC50 [1] of over 32 µM. The “WT ECMax” value [1] was −9.71%.
Cl.N[C@H]1[C@@H]2CC[C@@H](C2)[C@@H]1C1CCC1 (single isomer, unassigned) [Compound 114-P1] was tested, and the EC50 [2] was 29.9 µM, the ECMax [2] was −28.1% and the EC50 [1] was over 32 µM. For the same compound, the “WT ECMax” value [1] was 5.99%.
Cl.N[C@@H]1[C@H]2CC[C@H](C2)[C@H]1C1CCC1 (single isomer, unassigned) [Compound 114-P2] gave an EC50 [2] of over 32 µM, an ECMax [2] of −15.43% and an EC50 [1] of over 32 µM. The “WT ECMax” value [1] was 9.94%.
